# According to PubChem BioAssay AID588714 (Southern Research Specialized Biocontainment Screening …, 2011):
# Results filed as inconclusive are left out. Active and inactive are the calls of the source.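 Rule for the calls: active = viability below 80% at one or more tested concentrations, meaning the compound is toxic to the cells; inconclusive = replicate runs disagree on whether viability fell below 80%; inactive = viability of 80% or more at every dose.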
# System: Vero E6 viability, CellTiter-Glo luminescence, 72 h
# Test: Vero E6 cell cytotoxicity, dose response, cytotoxicity control for P. falciparum PFM18AAP inhibitor project, M18 aspartyl aminopeptidase campaign (AID 588714)
# Details: not given
row,Structure (SMILES),CC50 [µM]
1,COc1ccc(CCN(C)c2c3ccccc3nc3ccccc23)cc1OC,15.9
2,Oc1ccc(CCNc2cccc3ccccc23)cc1O,16.5
3,Cc1ccc(-c2nc(-c3ccc(O)c(O)c3)cs2)cc1,24.5
4,CCOc1cccc(-c2nc(-c3ccc(O)c(O)c3)cs2)c1,21.2
5,Oc1ccc(CCNc2ccc3ccccc3c2)cc1O,28.3
6,O=c1ccc2cc(O)c(O)cc2o1,38.2
7,O=c1cc(CN2CCN(Cc3ccccc3)CC2)c2ccc(O)c(O)c2o1,15.9
8,Cc1nc(NCCc2ccc(O)c(O)c2)c2c3c(sc2n1)CCC3,43.7
9,COc1ccc(CCNc2c3ccccc3nc3ccccc23)cc1OC,12.6
10,Oc1ccc(-c2csc(Cc3cc4ccccc4[nH]3)n2)cc1O,15.5
11,COc1ccc(CNc2c3ccccc3nc3ccccc23)cc1OC,5.37
12,NCCNc1c2ccccc2nc2ccccc12,45.3
13,Oc1ccc(CCNc2c3ccccc3nc3ccccc23)cc1,7.34
14,COc1ccc(CCCNc2c3ccccc3nc3ccccc23)cc1OC,21.8
15,Oc1ccc(CCNC(c2ccccc2)c2ccccc2)cc1O,36.3
16,COc1ccc(CCNc2c3ccccc3nc3ccccc23)cc1,14.9
17,CC(C)(C)C(=O)OCc1nc(-c2ccc(O)c(O)c2)cs1,31.6
18,NCc1cc2c3c(c(=O)oc2c(O)c1O)CCC3,29.2
19,O=C1c2ccc3c4c(ccc(c24)C(=O)N1O)CC3,9.17
20,O=S1(=O)c2ccccc2-c2cc(-c3nc(-c4ccc(O)c(O)c4)[nH]c3-c3ccccc3)ccc21,19.4
21,Oc1ccc(CNc2c3ccccc3nc3ccccc23)cc1O,7.78
22,COc1cccc(CCNc2c3ccccc3nc3ccccc23)c1,8.75
23,Oc1ccc(CCNc2cncc3ccccc23)cc1O,37.7

# System: not listed separately
# Test: as above
# Details: Vero E6 viability, CellTiter-Glo luminescence, 72 h; at 25 µM (top of the series)
row,Structure (SMILES),viability
1,O=C(O)CCCCNc1c2ccccc2nc2ccccc12,96.8% (inactive)
2,O=C(O)CCCNc1c2ccccc2nc2ccccc12,103% (inactive)

# Same assay, conditions: Vero E6 viability, CellTiter-Glo luminescence, 72 h; at 50 µM (top of the series)
row,Structure (SMILES),viability
1,Oc1ccc(CCN2CCc3ccccc3C2)cc1O,85.7% (inactive)
2,CCC(C)c1ccc(N)c(O)c1 (stereo not given),103% (inactive)
3,COc1ccc(CC(=O)O)cc1OC,108% (inactive)
4,O=C(c1ccco1)N1CCN(Cc2cc(=O)c(O)c[nH]2)CC1,100% (inactive)
5,COc1ccc(CCNC2CCN(C)CC2)cc1OC,97.5% (inactive)
6,CCC(C)C(=O)Nc1ccccc1N (stereo not given),105% (inactive)
7,O=c1cc(CO)oc(CN2CCCCC2)c1O,99.7% (inactive)
8,CN(CCc1ccc(O)c(O)c1)c1ccncc1,99.3% (inactive)
9,COc1ccc(CCN2CCc3ccccc3C2)cc1OC,86.9% (inactive)
10,COc1ccc(CCNc2ccncc2)cc1OC,87.5% (inactive)
11,Cc1c(-c2ccccc2)[nH]c(-c2ccc(O)c(O)c2)[n+]1O,97.2% (inactive)
12,Nc1cc(C(=O)c2ccccc2)ccc1O,104% (inactive)
13,Cc1c(O)c(=O)ccn1CCNc1c2ccccc2nc2ccccc12,89.4% (inactive)
14,O=C(c1ccco1)N1CCN(Cc2cc(=O)c(O)co2)CC1,92.2% (inactive)
15,CCC(C)C(=O)Nc1ccccc1O (stereo not given),99.8% (inactive)
16,COc1ccc(CCN2CCN(C)CC2)cc1OC,98% (inactive)
17,COc1ccc(CCC(=O)O)cc1OC,94.6% (inactive)
18,O=C1OCCN1CCc1nc(-c2ccc(O)c(O)c2)cs1,92.6% (inactive)
19,COc1ccc(CCN(C)c2ccncc2)cc1OC,83.9% (inactive)
20,Oc1ccc(CCNc2c3c(nc4ccccc24)CCCC3)cc1O,92.2% (inactive)
